Measured values: PubChem BioAssay (NCI)
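In this assay, cells in 96-well plates receive the compound at five concentrations for 48 hours. Endpoints are linearly interpolated between the surrounding concentrations. GI50 marks 50% less growth. The concentration for full growth arrest is given as TGI.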

Legend:
Assay in all cases: growth of human tumour cells (NCI), 48 h
[1] = tested on: ACHN renal
[2] = tested on: SK-MEL-5 melanoma
[3] = tested on: K-562 leukemia
[4] = tested on: HCC-2998 colon
[5] = tested on: SF-539 CNS
[6] = tested on: IGROV1 ovarian
[7] = tested on: SNB-19 CNS
[8] = tested on: SF-268 CNS
[9] = tested on: COLO 205 colon
[10] = tested on: MCF7 breast
[11] = tested on: MDA-MB-231 breast
[12] = tested on: HS 578T breast

## CCc1cccc(NC(=O)c2cc(/C=C/c3ccccc3)[nH]c(=S)n2)c1
[1]
  TGI: > 100 µM
[2]
  TGI: > 100 µM
[3]
  TGI: > 100 µM
[4]
  TGI: > 100 µM
[5]
  TGI: > 100 µM
[6]
  TGI: > 100 µM
[7]
  TGI: > 100 µM
[8]
  TGI: > 100 µM
[9]
  TGI: > 100 µM

## CC(C)=CCOc1ccc(-c2coc3cc4c(c(O)c3c2=O)C=CC(C)(C)O4)cc1
[1]
  TGI: > 100 µM
[2]
  TGI: 0.932 µM
[3]
  TGI: > 100 µM
[4]
  TGI: > 100 µM
[6]
  TGI: > 100 µM
[7]
  TGI: > 100 µM
[8]
  TGI: > 100 µM
[9]
  TGI: > 100 µM

## C[C@]12CC[C@H](O)CC1=CC[C@@H]1[C@@H]2CC[C@]2(C)NC(=O)/C(=C\c3ccccc3)C[C@@H]12
[1]
  TGI: 43.1 µM
[2]
  TGI: 25.7 µM
[3]
  TGI: > 100 µM
[4]
  TGI: 30.7 µM
[5]
  TGI: 30.2 µM
[10]
  TGI: 47.3 µM
[6]
  TGI: 33.8 µM
[7]
  TGI: 27.8 µM
[8]
  TGI: 30.7 µM
[11]
  TGI: 38.9 µM
[9]
  TGI: 31.9 µM

## CC(=O)OCC1=CC2CCC3C(C)(CCC[C@]3(C)COC(C)=O)C23CC[C@H]1C3 (some centres undefined)
[1]
  TGI: > 100 µM
[2]
  TGI: 58.8 µM
[3]
  TGI: 73.3 µM
[4]
  TGI: 86.3 µM
[5]
  TGI: > 100 µM
[6]
  TGI: > 100 µM
[7]
  TGI: > 100 µM
[8]
  TGI: > 100 µM
[9]
  TGI: 49.3 µM

## COC(=O)C1=COC2OC3CC1C2C(C)O3 (centres undefined)
[1]
  TGI: > 100 µM
[2]
  TGI: > 100 µM
[4]
  TGI: > 100 µM
[5]
  TGI: > 100 µM
[10]
  TGI: > 100 µM
[12]
  TGI: > 100 µM
[6]
  TGI: > 100 µM
[7]
  TGI: > 100 µM
[8]
  TGI: > 100 µM
[11]
  TGI: > 100 µM
[9]
  TGI: > 100 µM

## COc1ccc(/C=C/c2nc(=S)[nH][nH]2)cc1OC
[1]
  TGI: > 100 µM
[2]
  TGI: > 100 µM
[3]
  TGI: > 100 µM
[4]
  TGI: > 100 µM
[5]
  TGI: > 100 µM
[6]
  TGI: > 100 µM
[7]
  TGI: > 100 µM
[8]
  TGI: > 100 µM

## Cn1c(=O)[nH]c2c(c1=O)C(=O)CN2
[2]
  TGI: > 100 µM
[3]
  TGI: > 100 µM
[4]
  TGI: > 100 µM
[5]
  TGI: > 100 µM
[6]
  TGI: > 100 µM
[7]
  TGI: > 100 µM
[8]
  TGI: > 100 µM
[9]
  TGI: > 100 µM

## CC(C)(C)NC(=S)N/N=C/c1ccccn1
[1]
  TGI: 27 µM
[2]
  TGI: > 46.4 µM
[4]
  TGI: > 100 µM
[5]
  TGI: 27.6 µM
[12]
  TGI: > 100 µM
[6]
  TGI: > 100 µM
[7]
  TGI: > 100 µM
[8]
  TGI: > 100 µM
[11]
  TGI: > 100 µM
[9]
  TGI: > 100 µM

## COC(=O)[C@H](C)N(C)C(=O)[C@H](C)N1[C@@H](c2ccccc2)COC1(C)C
[1]
  TGI: > 100 µM
[2]
  TGI: > 100 µM
[3]
  TGI: > 100 µM
[5]
  TGI: > 100 µM
[10]
  TGI: > 100 µM
[12]
  TGI: > 100 µM
[6]
  TGI: > 100 µM
[7]
  TGI: > 100 µM
[8]
  TGI: > 100 µM
[11]
  TGI: > 100 µM
[9]
  TGI: > 100 µM

## Oc1ccc(/C=N/c2nccs2)c(O)c1
[1]
  TGI: > 100 µM
[2]
  TGI: > 100 µM
[4]
  TGI: > 100 µM
[5]
  TGI: > 100 µM
[10]
  TGI: > 100 µM
[12]
  TGI: > 100 µM
[6]
  TGI: > 100 µM
[7]
  TGI: > 100 µM
[8]
  TGI: > 100 µM
[11]
  TGI: > 100 µM
[9]
  TGI: 92.1 µM

## Clc1ccc(N2N=C(c3cccc(Nc4ccncc4)c3)CC2c2ccc(Br)cc2)cc1 (centres undefined)
[1]
  GI50: 1.7 µM
  TGI: 3.06 µM
[5]
  GI50: 1.74 µM
  TGI: 3.26 µM
[6]
  GI50: 1.8 µM
  TGI: 3.41 µM
[9]
  GI50: 2.26 µM
  TGI: 4.76 µM
